These results are taken from patent US20060189642A1, “Synergistic combination comprising roflumilast and an anticholinergic agent selected from ipratropium, oxitropium and tiotropium salts for the treatment of respiratory diseases” (ALTANA PHARMA AG, priority 2003, published 2006).

The subject of this test is methacholine-induced bronchoconstriction in guinea pigs. As to the kind of experiment: Inhibition of methacholine-induced bronchoconstriction in anaesthetized, mechanically ventilated guinea pigs. The format is in vivo, guinea pig. On the procedure:
Inhibition of Methacholine-induced Bronchoconstriction in Guinea Pigs by ROFLUMILAST in combination with tiotropium-bromide
To assess the inhibitory effect of tiotropium-bromide, ROFLUMILAST, and the combination of both compounds on methacholine-induced bronchoconstriction in anaesthetized, mechanically ventilated guinea pigs.
Male Dunkin Hartley guinea pigs, body weight 350-450 g when performing the experiments.
75 min before methacholine-induced bronchospasm (at −75 min) animals were anaesthetized with urethane i.p. (1.2 g/kg). At −5 min for i.v. injections the right jugular vein and for ventilation the trachea was cannulated. At −45 min NaCl 0.9% or tiotropium-bromide was administered i.v. (1 μg/kg). At −30 min lactose (10 mg/kg) or ROFLUMILAST (4 mg/kg) mixed with lactose was administered intratracheally by a dry powder aerolizer. At −10 min pancuronium-bromide (1.5 mg/kg) was administered i.v. to abolish spontaneous breathing. Animals were mechanically ventilated with 60 breath/min and a tidal volume of 7 ml/kg. Dynamic lung compliance (COM) and airway conductance (CON) were calculated with the help of a computer system from airflow and ventilation pressure signals. At t=0 min methacholine was administered i.v. (60 μg/kg) to induce Bronchoconstriction.
COM and CON were determined up to 120 s after methacholine-induced bronchospasm. AUCs for 0 to 120s were determined. Inhibition was calculated based on the AUC data. Data are shown as mean±SEM. Results were taken to be significant if p<0.05 versus placebo (ANOVA and Dunnett's multiple comparison test)

Where [1] appears, read: male Dunkin Hartley guinea pigs, methacholine 60 μg/kg i.v., tiotropium-bromide 1 μg/kg i.v. at -45 min, ROFLUMILAST 4 mg/kg intratracheally at -30 min, inhibition versus placebo.

As for `C[N+]1(C)[C@@H]2C[C@@H](OC(=O)C(O)(c3cccs3)c3cccs3)C[C@H]1[C@@H]1O[C@@H]12` [tiotropium-bromide], under setting [1], the “Inhibition of methacholine-induced airway conductance (CON) decrease, based on AUC 0-120 s” value is reported as 5.9% and the “Inhibition of methacholine-induced dynamic lung compliance (COM) decrease, based on AUC 0-120 s” value was determined as 12%. In addition, the “Effect on methacholine-induced bronchospasm (in words)” value (same doses, significant if p<0.05 versus placebo (ANOVA and Dunnett's test)) was “no significant effect”.
